# Reference: patent publication US20250011331A1 (Nimbus Saturn, Inc., priority 2021, published 2025)
# pIC50: −log10 of the molar value.
# Biological target: T1, HPK1 (Homo sapiens, UniProt Q92918)
# T1 construct: purchased Invitrogen
# Assay: HPK1 biochemical enzyme assay (microfluidic mobility shift)
# Details: 1.5 nM HPK1 (Invitrogen), 1 mM ATP, 30 min preincubation, 60 min at RT, Caliper EZ Reader
# Method: HPK1 biochemical enzyme assay: HPK1 enzyme inhibition was measured using a microfluidic mobility shift assay. Reactions were performed in a 384-well plate, containing 1.5 nM HPK1 (Invitrogen), in assay buffer (Cama Biosciences; pH 7.4). Test compounds were titrated in ten point curves (top final assay concentration 3 μM), and preincubated with enzyme/substrate mix for 30 min prior to initiation of the reaction by addition of ATP (1 mM final concentration) and substrate (1 μM final concentration; Carna Biosciences) diluted in assay buffer supplemented by MgCl2 (final assay concentration of 5 mM). Following 60 min incubation at RT, the reaction was terminated by addition of 60 μl/well termination buffer (Carna Biosciences) and signal determination using a Caliper EZ Reader (Perkin Elmer, UK).
# T1 sequence (Q92918 whole entry): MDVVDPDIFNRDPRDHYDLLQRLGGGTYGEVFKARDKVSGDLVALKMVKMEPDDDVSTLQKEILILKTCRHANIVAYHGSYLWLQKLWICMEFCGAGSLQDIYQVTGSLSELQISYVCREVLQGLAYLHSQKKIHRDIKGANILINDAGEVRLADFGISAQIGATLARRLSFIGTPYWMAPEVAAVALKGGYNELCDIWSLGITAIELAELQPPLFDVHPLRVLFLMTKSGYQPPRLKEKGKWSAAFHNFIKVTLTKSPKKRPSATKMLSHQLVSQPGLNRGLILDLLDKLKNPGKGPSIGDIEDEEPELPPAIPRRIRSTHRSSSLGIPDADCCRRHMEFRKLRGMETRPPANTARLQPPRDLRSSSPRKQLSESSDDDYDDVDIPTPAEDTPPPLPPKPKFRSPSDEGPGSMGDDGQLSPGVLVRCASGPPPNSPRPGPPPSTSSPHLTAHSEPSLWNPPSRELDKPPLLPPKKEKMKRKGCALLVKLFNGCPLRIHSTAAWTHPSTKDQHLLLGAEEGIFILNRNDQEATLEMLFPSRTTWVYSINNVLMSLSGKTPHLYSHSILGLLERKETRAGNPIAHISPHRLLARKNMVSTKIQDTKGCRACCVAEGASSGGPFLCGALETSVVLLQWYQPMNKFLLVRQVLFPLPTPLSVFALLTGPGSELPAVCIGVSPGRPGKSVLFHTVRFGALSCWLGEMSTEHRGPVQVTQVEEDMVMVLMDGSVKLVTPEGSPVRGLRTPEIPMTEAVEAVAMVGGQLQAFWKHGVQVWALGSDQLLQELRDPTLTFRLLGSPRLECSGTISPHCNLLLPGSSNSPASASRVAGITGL
row,pIC50,SMILES
1,≥ 7.00,"CO[C@@]1(c2ccc(Nc3ccc(-c4cnc5cc(F)ccn45)c4c3C(=O)NC4)nc2CN(C)C)CCOC1 (single isomer, unassigned) [Compound I-20]"
2,≥ 7.00,"CO[C@]1(c2ccc(Nc3ccc(-c4cnc5cc(F)ccn45)c4c3C(=O)NC4)nc2CN(C)C)CCOC1 (single isomer, unassigned) [Compound I-21]"
3,≥ 7.00,"C[C@@H](OC1CCOCC1)c1ccc(Nc2ccc(-c3cnc4cc(F)ccn34)c3c2C(=O)NC3)nc1CN(C)C (single isomer, unassigned) [Compound I-24]"
4,≥ 7.00,"C[C@H](OC1CCOCC1)c1ccc(Nc2ccc(-c3cnc4cc(F)ccn34)c3c2C(=O)NC3)nc1CN(C)C (single isomer, unassigned) [Compound I-26]"
5,≥ 7.00,"Cc1cncc2ncc(-c3ccc(Nc4ccc([C@@H]5CCOC5)c(CN(C)C)n4)c4c3CNC4=O)n12 (single isomer, unassigned) [Compound I-27]"
6,≥ 7.00,"Cc1cncc2ncc(-c3ccc(Nc4ccc([C@H]5CCOC5)c(CN(C)C)n4)c4c3CNC4=O)n12 (single isomer, unassigned) [Compound I-28]"
7,≥ 7.00,"C[C@H](OC[C@H]1COCCO1)c1ccc(Nc2ccc(-c3cnc4cc(F)ccn34)c3c2C(=O)NC3)nc1CN(C)C (single isomer, unassigned) [Compound I-33]"
8,≥ 7.00,"C[C@@H](OC[C@H]1COCCO1)c1ccc(Nc2ccc(-c3cnc4cc(F)ccn34)c3c2C(=O)NC3)nc1CN(C)C (single isomer, unassigned) [Compound I-34]"
9,≥ 7.00,"CN(C)Cc1nc(Nc2ccc(-c3cnc4cc(C#N)ccn34)c3c2C(=O)NC3)ccc1C1CCOC1 (single isomer, unassigned) [Compound I-38, 3-(7-((6-((dimethylamino)methyl)-5-(tetrahydrofuran-3-yl)pyridin-2-yl)amino)-1-oxoisoindolin-4-yl)imidazo[1,2-a]pyridine-7-carbonitrile]"
10,≥ 7.00,"CN(C)Cc1cc(C2CCOC2)cc(Nc2ccc(-c3cnc4cc(F)ccn34)c3c2C(=O)NC3)n1 (single isomer, unassigned) [Compound I-45]"
11,≥ 7.00,CO[C@H]1C[C@H](Oc2ccc(Nc3ccc(-c4cnc5cc(F)ccn45)c4c3C(=O)NC4)nc2CN(C)C)C1 [Compound I-19]
12,≥ 7.00,CN(C)Cc1nc(Nc2ccc(-c3cnc4cc(F)ccn34)c3c2C(=O)NC3)ccc1C1CCCC1 [Compound I-22]
13,≥ 7.00,CN(C)Cc1nc(Nc2ccc(-c3cnc4cc(F)ccn34)c3c2C(=O)NC3)ccc1N1CCOC(C)(C)C1=O [Compound I-23]
14,≥ 7.00,CN(C)Cc1nc(Nc2ccc(-c3cnc4cc(F)ccn34)c3c2C(=O)NC3)ccc1C(C)(C)N1CCOCC1=O [Compound I-25]
15,≥ 7.00,C[C@@H](OC1CCC1)c1ccc(Nc2ccc(-c3cnc4cnccn34)c3c2C(=O)NC3)nc1CN(C)C [Compound I-29]
16,≥ 7.00,C[C@H](OC1CCC1)c1ccc(Nc2ccc(-c3cnc4cnccn34)c3c2C(=O)NC3)nc1CN(C)C [Compound I-30]
17,≥ 7.00,COCC1CC(c2ccc(Nc3ccc(-c4cnc5cc(F)ccn45)c4c3C(=O)NC4)nc2CN(C)C)CCO1 (stereo not shown) [Compound I-32]
18,≥ 7.00,CC(c1ccc(Nc2ccc(-c3cnc4cnccn34)c3c2C(=O)NC3)nc1CN(C)C)C1CCOCC1 (stereo not shown) [Compound I-35]
19,≥ 7.00,C[C@@H](c1ccc(Nc2ccc(-c3cnc4cnccn34)c3c2C(=O)NC3)nc1CN(C)C)C1CCOCC1 [Compound I-36]
20,≥ 7.00,C[C@H](c1ccc(Nc2ccc(-c3cnc4cnccn34)c3c2C(=O)NC3)nc1CN(C)C)C1CCOCC1 [Compound I-37]
21,≥ 7.00,"CN(C)Cc1cc(C2CCOCC2)cc(Nc2ccc(-c3cnc4cc(F)ccn34)c3c2C(=O)NC3)n1 [Compound I-39, 7-((6-((dimethylamino)methyl)-4-(tetrahydro-2H-pyran-4-yl)pyridin-2-yl)amino)-4-(7-fluoroimidazo[1,2-a]pyridin-3-yl)isoindolin-1-one]"
22,≥ 7.00,"CN(C)Cc1nc(Nc2ccc(-c3cnc4cc(F)ccn34)c3c2C(=O)NC3)ccc1OC1CC2(COC2)C1 [Compound I-40, 7-((5-((2-oxaspiro[3.3]heptan-6-yl)oxy)-6-((dimethylamino)methyl)pyridin-2-yl)amino)-4-(7-fluoroimidazo[1,2-a]pyridin-3-yl)isoindolin-1-one]"
23,< 6.00,"COC1CN(Cc2nc(Nc3ccc(-c4cnc5cnccn45)c4c3C(=O)NC4)ccc2C2CCOC2)C1 (stereo not shown) [Compound I-41, 4-imidazo[1,2-a]pyrazin-3-yl-7-[[6-[(3-methoxyazetidin-1-yl)methyl]-5-tetrahydrofuran-3-yl-2-pyridyl]amino]isoindolin-1-one]"

# More lines, now with the values behind:
row,SMILES,pIC50
1,"CN(C)Cc1nc(Nc2ccc(-c3cnc4cc(F)ccn34)c3c2C(=O)NC3)ccc1[C@@]1(C)CCCO1 (single isomer, unassigned) [Compound I-5]",≥ 7.00
2,"CN(C)Cc1nc(Nc2ccc(-c3cnc4cc(F)ccn34)c3c2C(=O)NC3)ccc1[C@]1(C)CCCO1 (single isomer, unassigned) [Compound I-6]",≥ 7.00
3,"CN(C)Cc1nc(Nc2ccc(-c3cnc4cc(F)ccn34)c3c2C(=O)NC3)ccc1[C@H]1COCCO1 (single isomer, unassigned) [Compound I-14]",≥ 7.00
4,"CN(C)Cc1nc(Nc2ccc(-c3cnc4cc(F)ccn34)c3c2C(=O)NC3)ccc1[C@@H]1COCCO1 (single isomer, unassigned) [Compound I-15]",≥ 7.00
5,"CN1CCN(C(=O)[C@@H]2CCOC2)c2ccc(Nc3ccc(-c4cnc5cc(F)ccn45)c4c3C(=O)NC4)nc2C1 (single isomer, unassigned) [Compound I-17]",6.00 to 7.00
6,"CN1CCN(C(=O)[C@H]2CCOC2)c2ccc(Nc3ccc(-c4cnc5cc(F)ccn45)c4c3C(=O)NC4)nc2C1 (single isomer, unassigned) [Compound I-18]",6.00 to 7.00
7,"CN(C)Cc1nc(Nc2ccc(-c3cnc4cc(F)ccn34)c3c2C(=O)NC3)ccc1[C@H]1CC[C@@H](O)C1 [Compound I-1, 7-((6-((dimethylamino)methyl)-5-((1S,3R)-3-hydroxycyclopentyl)pyridin-2-yl)amino)-4-(7-fluoroimidazo[1,2-a]pyridin-3-yl)isoindolin-1-one]",≥ 7.00
8,"CN(C)Cc1nc(Nc2ccc(-c3cnc4cc(F)ccn34)c3c2C(=O)NC3)ccc1[C@@H]1CC[C@H](O)C1 [Compound I-2, 7-((6-((dimethylamino)methyl)-5-((1R,3S)-3-hydroxycyclopentyl)pyridin-2-yl)amino)-4-(7-fluoroimidazo[1,2-a]pyridin-3-yl)isoindolin-1-one]",≥ 7.00
9,"CN(C)Cc1nc(Nc2ccc(-c3cnc4cc(F)ccn34)c3c2C(=O)NC3)ccc1[C@H]1CC[C@H](O)C1 [Compound I-3, 7-((6-((dimethylamino)methyl)-5-((1S,3S)-3-hydroxycyclopentyl)pyridin-2-yl)amino)-4-(7-fluoroimidazo[1,2-a]pyridin-3-yl)isoindolin-1-one]",≥ 7.00
10,"CN(C)Cc1nc(Nc2ccc(-c3cnc4cc(F)ccn34)c3c2C(=O)NC3)ccc1C1(C)CCOCC1 [Compound I-4, 7-((6-((dimethylamino)methyl)-5-(4-methyltetrahydro-2H-pyran-4-yl)pyridin-2-yl)amino)-4-(7-fluoroimidazo[1,2-a]pyridin-3-yl)isoindolin-1-one]",≥ 7.00
11,"C[C@H](c1nc(Nc2ccc(-c3cnc4cc(F)ccn34)c3c2C(=O)NC3)ccc1C1CCOCC1)N(C)C [Compound I-7, (R)-7-((6-(1-(dimethylamino)ethyl)-5-(tetrahydro-2H-pyran-4-yl)pyridin-2-yl)amino)-4-(7-fluoroimidazo[1,2-a]pyridin-3-yl)isoindolin-1-one]",6.00 to 7.00
12,"C[C@@H](c1nc(Nc2ccc(-c3cnc4cc(F)ccn34)c3c2C(=O)NC3)ccc1C1CCOCC1)N(C)C [Compound I-8, (S)-7-((6-(1-(dimethylamino)ethyl)-5-(tetrahydro-2H-pyran-4-yl)pyridin-2-yl)amino)-4-(7-fluoroimidazo[1,2-a]pyridin-3-yl)isoindolin-1-one]",≥ 7.00
13,"C[C@@H](O)c1ccc(Nc2ccc(-c3cnc4cc(F)ccn34)c3c2C(=O)NC3)nc1CN(C)C [Compound I-9, (R)-7-((6-((dimethylamino)methyl)-5-(1-hydroxyethyl)pyridin-2-yl)amino)-4-(7-fluoroimidazo[1,2-a]pyridin-3-yl)isoindolin-1-one]",≥ 7.00
14,"C[C@H](O)c1ccc(Nc2ccc(-c3cnc4cc(F)ccn34)c3c2C(=O)NC3)nc1CN(C)C [Compound I-10, (S)-7-((6-((dimethylamino)methyl)-5-(1-hydroxyethyl)pyridin-2-yl)amino)-4-(7-fluoroimidazo[1,2-a]pyridin-3-yl)isoindolin-1-one]",≥ 7.00
15,CN(C)Cc1nc(Nc2ccc(-c3cnc4cnccn34)c3c2C(=O)NC3)ccc1OCC1CCC(F)(F)CC1 [Compound I-11],≥ 7.00
16,"CN(C)CCc1nc(Nc2cnc(-c3ccnc4c3ccn4C)c3c2C(=O)NC3)ccc1C1CCOCC1 [Compound I-13, 7-((6-(2-(dimethylamino)ethyl)-5-(tetrahydro-2H-pyran-4-yl)pyridin-2-yl)amino)-4-(1-methyl-1H-pyrrolo[2,3-b]pyridin-4-yl)-2,3-dihydro-1H-pyrrolo[3,4-c]pyridin-1-one]",≥ 7.00
17,CN1CCCC1c1nc(Nc2ccc(-c3cnc4cc(F)ccn34)c3c2C(=O)NC3)ccc1C1CCOC1 (stereo not shown) [Compound I-16],6.00 to 7.00
